Reference: ChEMBL document CHEMBL3769336, “Discovery of a Chemical Tool Inhibitor Targeting the Bromodomains of TRIM24 and BRPF” (J Med Chem, 2016)
The source made the active and inactive calls. No cut-off for these calls is given here.

Tests used:
[1] = biological target: T1, Bromodomain and PHD finger-containing protein 3 (Homo sapiens, UniProt Q9ULD4); experiment: Inhibition of BRPF3 (unknown origin) by Alpha Screen assay
T1 sequence (Q9ULD4 whole entry): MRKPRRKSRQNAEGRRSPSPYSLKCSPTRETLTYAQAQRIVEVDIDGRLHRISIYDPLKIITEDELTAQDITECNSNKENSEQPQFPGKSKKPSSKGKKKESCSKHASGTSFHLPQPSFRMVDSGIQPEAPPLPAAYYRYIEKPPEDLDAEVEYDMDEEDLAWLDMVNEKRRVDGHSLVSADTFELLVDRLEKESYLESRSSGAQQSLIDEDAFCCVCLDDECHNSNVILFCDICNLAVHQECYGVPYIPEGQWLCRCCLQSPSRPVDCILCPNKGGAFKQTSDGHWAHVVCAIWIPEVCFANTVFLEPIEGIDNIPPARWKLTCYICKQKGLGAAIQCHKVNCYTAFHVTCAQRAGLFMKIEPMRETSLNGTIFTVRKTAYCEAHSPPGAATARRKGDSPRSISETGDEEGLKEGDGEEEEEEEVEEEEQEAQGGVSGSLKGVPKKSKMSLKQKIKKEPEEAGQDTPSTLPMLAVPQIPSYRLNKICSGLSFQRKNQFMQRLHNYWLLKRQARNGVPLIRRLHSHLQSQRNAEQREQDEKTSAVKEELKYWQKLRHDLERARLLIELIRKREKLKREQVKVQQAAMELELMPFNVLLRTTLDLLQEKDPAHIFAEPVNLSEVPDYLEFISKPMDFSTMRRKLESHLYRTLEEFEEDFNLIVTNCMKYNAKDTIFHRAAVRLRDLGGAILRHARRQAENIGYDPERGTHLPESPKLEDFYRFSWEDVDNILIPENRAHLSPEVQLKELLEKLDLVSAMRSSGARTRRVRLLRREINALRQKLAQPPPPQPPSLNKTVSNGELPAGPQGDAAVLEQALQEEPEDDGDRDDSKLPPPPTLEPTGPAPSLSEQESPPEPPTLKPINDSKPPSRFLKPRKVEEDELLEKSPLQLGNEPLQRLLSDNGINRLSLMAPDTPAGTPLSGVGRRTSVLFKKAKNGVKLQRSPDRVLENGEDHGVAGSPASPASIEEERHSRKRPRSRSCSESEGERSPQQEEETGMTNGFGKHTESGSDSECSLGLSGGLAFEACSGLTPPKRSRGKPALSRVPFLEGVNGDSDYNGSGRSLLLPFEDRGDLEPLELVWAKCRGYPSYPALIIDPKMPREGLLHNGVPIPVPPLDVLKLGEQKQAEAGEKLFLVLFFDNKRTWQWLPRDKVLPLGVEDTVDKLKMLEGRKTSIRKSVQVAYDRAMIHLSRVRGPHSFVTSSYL

RCH-ACV = experiment: Cytotoxicity against human RCH-ACV cells at 5x10'-5 M to 8x10'-8 M after 72 hrs by CellTiter-Glo assay; type: functional, cell-based
JJN-3 = experiment: Cytotoxicity against human JJN-3 cells at 5x10'-5 M to 8x10'-8 M after 72 hrs by CellTiter-Glo assay; type: functional, cell-based
RKO = experiment: Cytotoxicity against human RKO cells at 5x10'-5 M to 8x10'-8 M after 72 hrs by CellTiter-Glo assay; type: functional, cell-based
[2] = biological target: T2, Bromodomain-containing protein 1 (Homo sapiens, UniProt O95696); experiment: Binding affinity to BRPF2 BRD1 (unknown origin) by isothermal titration calorimetry
T2 sequence (O95696 whole entry): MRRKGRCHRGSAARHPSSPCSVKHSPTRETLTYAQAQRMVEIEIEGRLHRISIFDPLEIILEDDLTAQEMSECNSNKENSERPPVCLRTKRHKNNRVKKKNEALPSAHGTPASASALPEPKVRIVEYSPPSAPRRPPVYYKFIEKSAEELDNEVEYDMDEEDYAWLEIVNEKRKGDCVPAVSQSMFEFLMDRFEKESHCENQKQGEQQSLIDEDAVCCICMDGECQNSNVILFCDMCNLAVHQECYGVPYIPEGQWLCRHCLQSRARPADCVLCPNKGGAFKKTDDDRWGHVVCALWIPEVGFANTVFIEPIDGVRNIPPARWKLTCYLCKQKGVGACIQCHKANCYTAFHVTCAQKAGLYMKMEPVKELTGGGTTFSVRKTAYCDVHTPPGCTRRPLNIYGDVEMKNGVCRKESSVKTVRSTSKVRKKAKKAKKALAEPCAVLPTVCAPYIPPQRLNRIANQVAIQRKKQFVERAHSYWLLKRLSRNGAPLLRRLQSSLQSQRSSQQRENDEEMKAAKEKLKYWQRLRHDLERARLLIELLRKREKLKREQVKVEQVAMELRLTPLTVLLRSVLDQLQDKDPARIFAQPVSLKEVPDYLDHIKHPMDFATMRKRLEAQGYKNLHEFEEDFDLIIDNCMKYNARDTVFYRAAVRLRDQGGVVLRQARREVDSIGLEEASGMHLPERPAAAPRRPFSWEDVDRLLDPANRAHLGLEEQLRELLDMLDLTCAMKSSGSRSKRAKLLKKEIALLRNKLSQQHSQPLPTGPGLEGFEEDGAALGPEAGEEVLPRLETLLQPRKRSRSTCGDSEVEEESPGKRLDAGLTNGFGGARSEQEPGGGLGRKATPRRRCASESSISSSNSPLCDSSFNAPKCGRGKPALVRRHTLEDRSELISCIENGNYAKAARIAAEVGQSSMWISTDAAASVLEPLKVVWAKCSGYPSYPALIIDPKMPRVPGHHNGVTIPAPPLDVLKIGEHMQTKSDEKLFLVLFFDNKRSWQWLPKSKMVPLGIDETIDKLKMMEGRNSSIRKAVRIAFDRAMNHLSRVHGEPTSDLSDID

[3] = Cytotoxicity against human MM1S cells after 72 hrs by CellTiter-Glo assay; type: functional; settings: MM1.S

In the case of `COc1ccc(Oc2cc3c(cc2NS(=O)(=O)c2ccc(OC)c(OC)c2)n(C)c(=O)n3C)cc1`, the IC50 [1] is reported as 7 µM, the Activity (RCH-ACV) is reported as “inactive” and the Activity (JJN-3) is reported as “inactive”. For the same molecule, the Activity (RKO) was “inactive”, the Kd [2] was 1.13 µM and the GI50 [3] was greater than 10 µM.
